The subject of assay [1] is Behavior change due to the spinal intrathecal injection of ferrous chloride in mice. Nature of the assay: Behavior change due to spinal intrathecal injection of ferrous chloride in mice. Type of assay: in vivo, Slc:ICR mouse. The conditions noted are these: 100 mg/kg p.o., 30 min before i.t. ferrous chloride; for Average score, 100 mg/kg dose: scale 0 (normal) to 5 (death); for Inhibition rate (%): vs saline. The procedure: In male Slc : ICR mouse of 5 weeks age 10 mice per group were used. […] The evaluation point of behavior change was scored according to the following criterion.
The inhibition rate was shown based on the evaluation point under the above criterion. The test compound was orally administered 30 minutes before the i.t. injection of ferrous chloride.

Assay [2] has as its system lipoperoxide formation in rat's brain homogenate. As to the kind of experiment: Inhibitory action for lipoperoxide formation in rat's brain homogenate (thiobarbituric acid method). In kind it is biochemical. The conditions noted are these: read-out: IC50 (M) × 10^-7. The procedure: According to the method by Suno et al. (Japan J. Pharmacol., 35, 196(1984) , the concentration of the compound necessary for 50% inhibition of lipoperoxide formation in rat's brain homogenate was determined by examining the lipoperoxide formation using the thiobarbituric acid method. The results obtained are shown in Table 3.

For the next assay, the target named is T1, 5-lipoxygenase (Rattus norvegicus, UniProt P12527).
T1 construct: endogenous in cells; host or cells: RBL-1 (rat basophilic leukemia cells)
T1 sequence (P12527 1-673): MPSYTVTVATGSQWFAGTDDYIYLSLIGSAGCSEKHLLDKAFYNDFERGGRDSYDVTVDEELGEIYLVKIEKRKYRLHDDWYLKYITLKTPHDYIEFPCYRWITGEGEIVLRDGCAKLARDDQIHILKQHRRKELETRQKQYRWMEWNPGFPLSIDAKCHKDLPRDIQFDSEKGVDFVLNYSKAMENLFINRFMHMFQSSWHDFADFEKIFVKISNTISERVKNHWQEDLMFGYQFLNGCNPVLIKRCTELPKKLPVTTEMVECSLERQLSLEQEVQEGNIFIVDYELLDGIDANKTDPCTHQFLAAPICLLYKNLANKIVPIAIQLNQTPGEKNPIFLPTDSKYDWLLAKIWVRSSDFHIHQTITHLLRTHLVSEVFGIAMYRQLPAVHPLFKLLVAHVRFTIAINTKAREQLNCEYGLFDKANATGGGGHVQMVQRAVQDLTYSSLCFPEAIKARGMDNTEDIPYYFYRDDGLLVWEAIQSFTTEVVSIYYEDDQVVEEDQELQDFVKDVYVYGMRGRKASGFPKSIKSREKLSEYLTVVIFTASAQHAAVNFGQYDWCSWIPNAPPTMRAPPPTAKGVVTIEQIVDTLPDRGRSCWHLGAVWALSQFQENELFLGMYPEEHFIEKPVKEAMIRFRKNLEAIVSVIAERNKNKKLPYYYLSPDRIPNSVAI
As to the kind of experiment: Inhibitory action on 5-lipoxygenase (5-HETE formation in RBL-1 cells). Type of assay: cell-based. The conditions noted are these: read-out: Inhibition rate (%) of 5-HETE formation. The procedure:
RBL-1 cells (rat basophilic leukemia cells) of 10^7 were suspended in 0.9 ml of MCM (mast cell medium). […] The mixture was incubated at 37° C. for 5 minutes. Then, 0.1 ml of MCM containing 50 μg of arachidonic acid and 10 μg of calcium ionophore A-23187 was added and further the mixture was incubated at 37° C. for 15 minutes. After the reaction, 1 ml of ethanol was added, well shaken and subjected to high performance liquid chromatography to determine 5-HETE. The absorption at 240 nm due to 5-HETE was measured by an ultraviolet abosorption monitor. The inhibition rate of 5-HETE formation is represented by (1-b/a)×100, wherein a is the peak height or area in the absence of the compound (I) and b is that in the presence of the compound (I).

Assay [3] has as its system Cerebral blood flow after complete cerebral ischemia-reperfusion in dogs. Nature of the assay: Effect on cerebral blood flow and cortical water content after complete cerebral ischemia-reperfusion in dogs. Type of assay: in vivo, dog (adult mongrel). The settings on record: for Decrease rate of γ-CBF 3 hours after reperfusion: control 44.3±1.4%. The procedure: Fourteen adult mongrel dogs were anesthetized with a combination of α-chloralose and urethane. Polyethylene catheters were introduced into the femoral artery and vein. Systemic blood pressure was measured through the cannulated femoral artery with an electromanometer. Heart rate was recorded with a cardiotachometer. The regional cerebral blood flow (γ-CBF) was measured using a thermal diffusion flow probe incorporating a Peltier stack. The animals were subjected to positive-pressure ventilation with room-air. A thoracotomy was performed in the third right intercostal space. […] Occlusion was maintained for 10 minutes. After reperfusion, all physiological variables were continuously recorded for 3 hours. After 3 hours of reperfusion, animals were sacrificed. The regional cerebral cortex was removed, weighed and then dried (48 hours at 120° C.) to remove water content. The test drugs were given intravenously 5 minutes before ischemia.

Molecules are shown by their SMILES. Counter-ions that a name gives are not always drawn.

By IC50 is commonly meant the concentration that inhibits the measured activity by half. As usually defined, the inhibition is how much of the control response was suppressed.

Turning to `C(C=Cc1nc2c(s1)NCCCC2)=Cc1ccccc1` [Example 21, 2-(4-Phenylbutadienyl)-5,6,7,8-tetrahydro-4H-thiazolo[5,4-b]azepine], in assay [1], the “Average score, 100 mg/kg dose” value is 1.7 and the “Inhibition rate (%)” value worked out at 63.0%. For the same compound, the half-inhibitory concentration (IC50) in assay [2] stood at 7e-07 M.
As to `C(=Cc1nc2c(s1)NCCCC2)c1ccccc1.O=C(O)C(=O)O` [Example 28, 2-Styryl-5,6,7,8-tetrahydro-4H-thiazolo[5,4-b]azepine oxalate], in assay [1], the “Average score, 100 mg/kg dose” value came to 1.1 and the “Inhibition rate (%)” value is recorded as 76.6%. Moreover, the IC50 in assay [2] worked out at 7e-07 M. For the same compound, the inhibition at 1 µM at 5-lipoxygenase (10^-6 M) stood at 95%. In addition, at 5-lipoxygenase (10^-7 M), the inhibition at 0.1 µM was 56%. Further, the inhibition at 0.01 µM at 5-lipoxygenase (10^-8 M) worked out at 9%.
On to `Cc1ccc(-c2nc3c(s2)NCCCC3)cc1N` [Example 106, 2-(3-Amino-4-methylphenyl)-5,6,7,8-tetrahydro-4H-thiazolo-[5,4-b]azepine dihydrochloride], for which the “Effect on decrease in γ-CBF” value in assay [3] (1 mg/kg, i.v., 3 hours after reperfusion) is “significantly inhibited a decrease in γ-CBF 3 hours after reperfusion”. In assay [3] (1 mg/kg, i.v., 3 hours after reperfusion, control 79.81 ± 0.21), the “Water Content (%) of cerebral cortex” value was determined as 78.22 ± 0.08%. The “Decrease rate of γ-CBF 3 hours after reperfusion” value turned out to be 18.0±3.1% in assay [3] (1 mg/kg, i.v.) and 6.5±2.5% in assay [3] (10 mg/kg, i.v.). Also, in assay [3] (10 mg/kg, i.v.), the “Effect on post-ischemia hypoperfusion in γ-CBF” value is on record as “almost completely inhibited the post-ischemia hypoperfusion in γ-CBF”. In addition, the “Effect on increase in water content in the cerebral cortex” value in assay [3] (3 hours after reperfusion) was “significantly inhibited the increase in water content in the cerebral cortex 3 hours after reperfusion”. Moreover, the “Time after reperfusion at which γ-CBF recovered to the pre-occlusion level” value in assay [3] (i.v., 5 minutes before ischemia) turned out to be 30 min. For the same compound, in assay [3] (i.v., 5 minutes before ischemia, vs control group), the “γ-CBF immediately after reperfusion” value was “transiently increased, with reactive hyperemia to the same extent as that of the control group”.

The values above are taken from patent publication US5300639A, “Thiazolo [5,4-b]azepine compounds” (Takeda Chemical Industries, Ltd., priority 1992, dated 1994).
